Measured values reported in patent US4742061A, “Benzoc[c]-1,5-naphthyridines and related compounds as memory enhancing agents” (priority 1986, dated 1988).

Tested on: mice
Experiment: Dark Avoidance Assay (block of scopolamine-induced memory impairment in mice, 24 hours)
Type: in vivo
Protocol: In this assay mice are tested for their ability to remember an unpleasant stimulus for a period of 24 hours. A mouse is placed in a chamber than contains a dark compartment; a strong incandescent light drives it to the dark compartment, where an electric shock is administered through metal plates on the floor. The animal is removed from the testing apparatus and tested again, 24 hours later, for the ability to remember the electric shock.
If scopolamine, an anticholinergic agent that is known to cause memory impairment, is administered before an animal's initial exposure to the test chamber, the animal re-enters the dark compartment shortly after being placed in the test chamber 24 hours later. This effect of scopolamine is blocked by an active test compound, resulting in greater interval before re-entry into the dark compartment.
The results for an active compound are expressed as the percent of a group of animals in which the effect of scopolamine is blocked, as manifested by an increased interval between being placed in the test chamber and re-entering the dark compartment.

## c1ccc2c3c(ncc2c1)CCCN3 [1,2,3,4-Tetrahydrobenzo[c]-1,5-naphthyridine]
Dose 1.25 mg/kg of body weight
  % of Animals Greater than Scopolamine: 27%
Dose 2.5 mg/kg of body weight
  % of Animals Greater than Scopolamine: 25%

## CC[C@@H]1C(=O)OC[C@@H]1Cc1cncn1C [Pilocarpine]
Dose 5.0 mg/kg of body weight
  % of Animals Greater than Scopolamine: 13%

## Nc1c2c(nc3ccccc13)CCCC2 [Tacrine, 9-amino-1,2,3,4-tetrahydro-acridine]
Dose 0.63 mg/kg of body weight
  % of Animals Greater than Scopolamine: 13%
